Results taken from patent US20110053773A1, “METHODS OF IMPROVING NUTRITIONAL VALUE OF PLANTS” (UNIVERSITY OF TENNESSEE RESEARCH FOUNDATION, priority 2009, published 2011).

Tests used:
[1] = system: sweet corn variety WH0809; experiment: Visual injury of sweet corn after POST herbicide inhibitors of photosynthesis (Example 2); type: in vivo
Description: (§1) A field study was conducted at Greenback, TN to investigate POST applications of several herbicide inhibitors of photosynthesis for sweet corn safety and for changes in carbohydrate content in the kernels of sweet corn among treatments. Treatments included bentazon at 1120 and 2240 g ai/ha, linuron at 280 and 560 g ai/ha, metribuzin at 105 and 210 g ai/ha, and bromoxynil at 560 and 1120 g ai/ha. All treatments included a PRE application of a common residual corn herbicide in order to maintain weed free conditions. […] Sweet corn was harvested from the center two rows of each four row plot and weighed in the husk. Eight ears of corn were harvested from each plot and were pooled over replicates for analysis of key carbohydrates which included the sugars sucrose, fructose, glucose, maltose, and raffanose.

[2] = system: sweet corn variety WH0809; experiment: Sweet corn yield, harvested and weighed in the husk (Example 2); type: in vivo; details: treated check 9758.4
Description: as §1

[3] = system: sweet corn variety WH0809; experiment: Sugar content of sweet corn kernels (Example 2); type: in vivo; details: for Sugar content Raffanose: treated check 0.51; for Sugar content Maltose: treated check 0.61; for Sugar content Fructose: treated check 1.04; for Sugar content Glucose: treated check 1.91; for Sugar content Sucrose: treated check 10.72
Description: as §1

[4] = system: basil 'Genovese'; experiment: Visual injury of basil after insecticide, fungicide, PGRs, safeners (Example 4)
Description: (§2) Greenhouse and laboratory studies were conducted to ascertain the tolerance and nutritional quality differences following postemergence applications of the insecticide chlorpyrifos, the fungicide chlorothalonil, the PGRs mepiquat-chloride and paclobutrazol, and the safeners napthalic anhydride and isoxadifen-ethyl on kale ‘Red Russian’ and basil ‘Genovese’. Visual injury was rated based on general phytotoxicity, chlorosis, and visual stunting and each measurement was based on a percent scale from 0 to 100 where 0 equals no visual response and 100 equals complete plant death. Kale and basil were both harvested approximately 4 weeks after treatments and plants were pooled over replicates for content analysis of crude protein, crude amino acid content, acid detergent fiber, neutral detergent fiber, total fatty acids, and/or key mineral content (including Na, Ca, P, Mg, K, Fe, Mn, Zn, and Cu). In addition, the amounts of key individual amino acids (aspartic acid, threonine, glutamic acid, proline, glycine, cysteine, valine, leucine, isoleucine, methionine, and lysine) and composite classifications of fatty acid (saturated fatty acids, monounsaturated fatty acids, polyunsaturated fatty acids) were also analyzed from these sub-samples for kale (Tables 10-14).

[5] = system: basil 'Genovese'; experiment: Content analysis of basil: protein, minerals (Example 4, Tables 10-11); type: in vivo; details: 28 DA-A
Description: as §2

[6] = system: basil ‘Genovese’; experiment: Yield, fresh weight of basil after insecticide, fungicide, PGRs and safeners (Example 4, Table 10); type: in vivo; details: DA-A, check 31.8
Description: as §2

[7] = 560 g ai/ha + COC 1% v/v POST, 1st of 3 Injury columns, rating date not given
[8] = 560 g ai/ha + COC 1% v/v POST, 2nd of 3 Injury columns (agrees with 14 DAT of b67)
[9] = 560 g ai/ha + COC 1% v/v POST, 3rd of 3 Injury columns, rating date not given
[10] = 1120 g ai/ha + COC 1% v/v POST, 1st of 3 Injury columns, rating date not given
[11] = 1120 g ai/ha + COC 1% v/v POST, 2nd of 3 Injury columns (agrees with 14 DAT of b67)
[12] = 1120 g ai/ha + COC 1% v/v POST, 3rd of 3 Injury columns, rating date not given
[13] = 7 DA-A, rates g ai/ha: chlropyrifos 1120, chlorothalonil 2630, paclobutrazol 3.23, mepiquat-chloride 12.3, Isoxadifen 8, Napthalic anhydride 264, + NIS 0.25 % v/v
[14] = 7 DA-A, rates g ai/ha: chlropyrifos 3370, chlorothalonil 7900, paclobutrazol 9.7, mepiquat-chloride 37, Isoxadifen 16, Napthalic anhydride 527, + NIS 0.25 % v/v
[15] = 14 DA-A, rates g ai/ha: chlropyrifos 1120, chlorothalonil 2630, paclobutrazol 3.23, mepiquat-chloride 12.3, Isoxadifen 8, Napthalic anhydride 264, + NIS 0.25 % v/v
[16] = 14 DA-A, rates g ai/ha: chlropyrifos 3370, chlorothalonil 7900, paclobutrazol 9.7, mepiquat-chloride 37, Isoxadifen 16, Napthalic anhydride 527, + NIS 0.25 % v/v
[17] = 28 DA-A, rates g ai/ha: chlropyrifos 1120, chlorothalonil 2630, paclobutrazol 3.23, mepiquat-chloride 12.3, Isoxadifen 8, Napthalic anhydride 264, + NIS 0.25 % v/v
[18] = 28 DA-A, rates g ai/ha: chlropyrifos 3370, chlorothalonil 7900, paclobutrazol 9.7, mepiquat-chloride 37, Isoxadifen 16, Napthalic anhydride 527, + NIS 0.25 % v/v
[19] = rates g ai/ha: chlroprifos 3370, chlorothalonil 7900, paclobutrazol 9.7, mepiquat-chloride 37, Isoxadifen 16, Napthalic anhydride 527, + NIS 0.25 % v/v
[20] = rates g ai/ha: chlropyrifos 1120, chlorothalonil 2630, paclobutrazol 3.23, mepiquat-chloride 12.3, Isoxadifen 8, Napthalic anhydride 264, + NIS 0.25 % v/v

CON(C)C(=O)Nc1ccc(Cl)c(Cl)c1 [LINURON, linuron]
Injury ([1]; 280 g ai/ha + COC 1% v/v POST, 1st of 3 Injury columns, rating date not given): 25% | Injury ([1]; 280 g ai/ha + COC 1% v/v POST, 2nd of 3 Injury columns (agrees with 14 DAT of b67)): 22% | Injury ([1]; 280 g ai/ha + COC 1% v/v POST, 3rd of 3 Injury columns, rating date not given): 25% | Injury [1, 7]: 38% | Injury [1, 8]: 35% | Injury [1, 9]: 27% | YIELD ([2]; 280 g ai/ha + COC 1% v/v POST): 8062.6 kg | YIELD ([2]; 560 g ai/ha + COC 1% v/v POST): 9227.9 kg | Sugar content Raffanose ([3]; 280 g ai/ha + COC 1% v/v POST): 0.64 mg/g dw | Sugar content Maltose ([3]; 280 g ai/ha + COC 1% v/v POST): 0.95 mg/g dw | Sugar content Fructose ([3]; 280 g ai/ha + COC 1% v/v POST): 1.86 mg/g dw | Sugar content Glucose ([3]; 280 g ai/ha + COC 1% v/v POST): 3.22 mg/g dw | Sugar content Sucrose ([3]; 280 g ai/ha + COC 1% v/v POST): 12.02 mg/g dw | Sugar content Raffanose ([3]; 560 g ai/ha + COC 1% v/v POST): 0.48 mg/g dw | Sugar content Maltose ([3]; 560 g ai/ha + COC 1% v/v POST): 0.59 mg/g dw | Sugar content Fructose ([3]; 560 g ai/ha + COC 1% v/v POST): 1.39 mg/g dw | Sugar content Glucose ([3]; 560 g ai/ha + COC 1% v/v POST): 2.33 mg/g dw | Sugar content Sucrose ([3]; 560 g ai/ha + COC 1% v/v POST): 13.30 mg/g dw

CC(C)N1C(=O)c2ccccc2NS1(=O)=O [BENTAZON, bentazon]
Injury [1, 10]: 5% | Injury [1, 11]: 17% | Injury [1, 12]: 0% | Injury ([1]; 2240 g ai/ha + COC 1% v/v POST, 1st of 3 Injury columns, rating date not given): 12% | Injury ([1]; 2240 g ai/ha + COC 1% v/v POST, 2nd of 3 Injury columns (agrees with 14 DAT of b67)): 10% | Injury ([1]; 2240 g ai/ha + COC 1% v/v POST, 3rd of 3 Injury columns, rating date not given): 2% | YIELD ([2]; 1120 g ai/ha + COC 1% v/v POST): 10317 kg | YIELD ([2]; 2240 g ai/ha + COC 1% v/v POST): 10565.6 kg | Sugar content Raffanose ([3]; 1120 g ai/ha + COC 1% v/v POST): 0.56 mg/g dw | Sugar content Maltose ([3]; 1120 g ai/ha + COC 1% v/v POST): 0.96 mg/g dw | Sugar content Fructose ([3]; 1120 g ai/ha + COC 1% v/v POST): 1.69 mg/g dw | Sugar content Glucose ([3]; 1120 g ai/ha + COC 1% v/v POST): 2.65 mg/g dw | Sugar content Sucrose ([3]; 1120 g ai/ha + COC 1% v/v POST): 13.18 mg/g dw | Sugar content Raffanose ([3]; 2240 g ai/ha + COC 1% v/v POST): 0.84 mg/g dw | Sugar content Maltose ([3]; 2240 g ai/ha + COC 1% v/v POST): 1.26 mg/g dw | Sugar content Fructose ([3]; 2240 g ai/ha + COC 1% v/v POST): 1.78 mg/g dw | Sugar content Glucose ([3]; 2240 g ai/ha + COC 1% v/v POST): 3.41 mg/g dw | Sugar content Sucrose ([3]; 2240 g ai/ha + COC 1% v/v POST): 18.67 mg/g dw

CCOC(=O)C1=NOC(c2ccccc2)(c2ccccc2)C1 [isoxadifen, isoxadifen-ethyl]
Phytotoxicity Chlorosis [4, 13]: 8% | Phytotoxicity General [4, 13]: 3% | Phytotoxicity Stunting [4, 13]: 2% | Phytotoxicity Chlorosis [4, 14]: 7% | Phytotoxicity General [4, 14]: 7% | Phytotoxicity Stunting [4, 14]: 7% | Phytotoxicity Chlorosis [4, 15]: 5% | Phytotoxicity General [4, 15]: 2% | Phytotoxicity Stunting [4, 15]: 5% | Phytotoxicity Chlorosis [4, 16]: 8% | Phytotoxicity General [4, 16]: 8% | Phytotoxicity Stunting [4, 16]: 10% | Phytotoxicity Chlorosis [4, 17]: 2% | Phytotoxicity General [4, 17]: 2% | Phytotoxicity Stunting [4, 17]: 5% | Phytotoxicity Chlorosis [4, 18]: 0% | Phytotoxicity General [4, 18]: 7% | Phytotoxicity Stunting [4, 18]: 8% | ADF, Percent Increase Over the Untreated Check (on a % dry matter basis) [5, 19]: 13 % check | Calcium, Percent Increase Over the Untreated Check (on a % dry matter basis) [5, 19]: 6 % check | Copper, Percent Increase Over the Untreated Check (on a % dry matter basis) [5, 19]: 0 % check | Iron, Percent Increase Over the Untreated Check (on a % dry matter basis) [5, 19]: 27 % check | Magnesium, Percent Increase Over the Untreated Check (on a % dry matter basis) [5, 19]: 12 % check | Manganese, Percent Increase Over the Untreated Check (on a % dry matter basis) [5, 19]: 118 % check | NDF, Percent Increase Over the Untreated Check (on a % dry matter basis) [5, 19]: 0 % check | Phosphorous, Percent Increase Over the Untreated Check (on a % dry matter basis) [5, 19]: 28 % check | Potassium, Percent Increase Over the Untreated Check (on a % dry matter basis) [5, 19]: 16 % check | Protein, Percent Increase Over the Untreated Check (on a % dry matter basis) [5, 19]: 22 % check | Sodium, Percent Increase Over the Untreated Check (on a % dry matter basis) [5, 19]: 17 % check | Soluble protein, Percent Increase Over the Untreated Check (on a % dry matter basis) [5, 19]: 4 % check | Zinc, Percent Increase Over the Untreated Check (on a % dry matter basis) [5, 19]: 34 % check | ADF, Percent Increase Over the Untreated Check (on a % dry matter basis) [5, 20]: 6 % check | Calcium, Percent Increase Over the Untreated Check (on a % dry matter basis) [5, 20]: −2 % check | Copper, Percent Increase Over the Untreated Check (on a % dry matter basis) [5, 20]: 0 % check | Iron, Percent Increase Over the Untreated Check (on a % dry matter basis) [5, 20]: 25 % check | Magnesium, Percent Increase Over the Untreated Check (on a % dry matter basis) [5, 20]: 9 % check | Manganese, Percent Increase Over the Untreated Check (on a % dry matter basis) [5, 20]: 10 % check | NDF, Percent Increase Over the Untreated Check (on a % dry matter basis) [5, 20]: 1 % check | Phosphorous, Percent Increase Over the Untreated Check (on a % dry matter basis) [5, 20]: 17 % check | Potassium, Percent Increase Over the Untreated Check (on a % dry matter basis) [5, 20]: 17 % check | Protein, Percent Increase Over the Untreated Check (on a % dry matter basis) [5, 20]: 14 % check | Sodium, Percent Increase Over the Untreated Check (on a % dry matter basis) [5, 20]: 27 % check | Soluble protein, Percent Increase Over the Untreated Check (on a % dry matter basis) [5, 20]: 12 % check | Zinc, Percent Increase Over the Untreated Check (on a % dry matter basis) [5, 20]: 38 % check | Yield Fresh weight [6, 20]: 34.2 grams | Yield Fresh weight ([6]; rates g ai/ha: chlropyrifos 3370, chlorothalonil 7900, paclobutrazol 9.7, mepiquat-chloride 37, Isoxadifen 16, Napthalic anhydride 527, + NIS 0.25 % v/v): 36.9 grams

N#Cc1cc(Br)c(O)c(Br)c1 [BROMOXYNIL, bromoxynil]
Injury [1, 7]: 37% | Injury [1, 8]: 35% | Injury [1, 9]: 27% | Injury [1, 10]: 45% | Injury [1, 11]: 47% | Injury [1, 12]: 35% | YIELD ([2]; 560 g ai/ha + COC 1% v/v POST): 9436.2 kg | YIELD ([2]; 1120 g ai/ha + COC 1% v/v POST): 9142.6 kg | Sugar content Raffanose ([3]; 560 g ai/ha + COC 1% v/v POST): 0.77 mg/g dw | Sugar content Maltose ([3]; 560 g ai/ha + COC 1% v/v POST): 0.88 mg/g dw | Sugar content Fructose ([3]; 560 g ai/ha + COC 1% v/v POST): 1.74 mg/g dw | Sugar content Glucose ([3]; 560 g ai/ha + COC 1% v/v POST): 3.07 mg/g dw | Sugar content Sucrose ([3]; 560 g ai/ha + COC 1% v/v POST): 15.56 mg/g dw | Sugar content Raffanose ([3]; 1120 g ai/ha + COC 1% v/v POST): 0.54 mg/g dw | Sugar content Maltose ([3]; 1120 g ai/ha + COC 1% v/v POST): 0.60 mg/g dw | Sugar content Fructose ([3]; 1120 g ai/ha + COC 1% v/v POST): 1.77 mg/g dw | Sugar content Glucose ([3]; 1120 g ai/ha + COC 1% v/v POST): 2.70 mg/g dw | Sugar content Sucrose ([3]; 1120 g ai/ha + COC 1% v/v POST): 14.50 mg/g dw
